SMILES strings stand for the structures.

As usually defined, the Ki is the equilibrium dissociation constant of an inhibitor or competing ligand from its target.

Assay [1] concerns the target Carbonic anhydrase 5A, mitochondrial (Homo sapiens, UniProt P35218).
The target in assay [2] is Carbonic anhydrase 14 (Homo sapiens, UniProt Q9ULX7).
Assay [3] has as its target Carbonic anhydrase 6 (Homo sapiens, UniProt P23280).
The target in assay [4] is Carbonic anhydrase 5B, mitochondrial (Homo sapiens, UniProt Q9Y2D0).
For assay [5], the target named is Carbonic anhydrase 13 (Mus musculus, UniProt Q9D6N1).
Assay [6] has as its target Carbonic anhydrase 3 (Homo sapiens, UniProt P07451).
Assay [7] addresses Carbonic anhydrase 12 (Homo sapiens, UniProt O43570).
Assay [8] concerns the target Carbonic anhydrase 7 (Homo sapiens, UniProt P43166).

Sequence of Carbonic anhydrase 13 (Q9D6N1 whole entry): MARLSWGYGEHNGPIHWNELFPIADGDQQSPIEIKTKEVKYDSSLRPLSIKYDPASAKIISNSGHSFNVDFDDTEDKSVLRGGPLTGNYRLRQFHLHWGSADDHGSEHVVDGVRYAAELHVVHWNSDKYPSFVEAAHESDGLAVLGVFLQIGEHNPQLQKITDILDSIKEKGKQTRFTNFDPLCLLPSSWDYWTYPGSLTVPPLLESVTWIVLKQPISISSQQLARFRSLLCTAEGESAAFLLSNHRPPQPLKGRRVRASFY
Sequence of Carbonic anhydrase 12 (O43570 whole entry): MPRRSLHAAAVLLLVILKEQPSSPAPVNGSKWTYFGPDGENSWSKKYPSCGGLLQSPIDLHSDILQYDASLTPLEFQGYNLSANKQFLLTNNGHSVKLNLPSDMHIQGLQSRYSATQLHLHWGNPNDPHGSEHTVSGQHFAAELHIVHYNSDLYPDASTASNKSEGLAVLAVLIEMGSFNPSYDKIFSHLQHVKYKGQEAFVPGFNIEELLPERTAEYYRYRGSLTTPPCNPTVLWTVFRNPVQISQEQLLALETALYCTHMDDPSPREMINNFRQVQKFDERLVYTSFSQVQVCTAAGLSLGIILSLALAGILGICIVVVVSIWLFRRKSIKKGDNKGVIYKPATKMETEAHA
Sequence of Carbonic anhydrase 5A, mitochondrial (P35218 whole entry): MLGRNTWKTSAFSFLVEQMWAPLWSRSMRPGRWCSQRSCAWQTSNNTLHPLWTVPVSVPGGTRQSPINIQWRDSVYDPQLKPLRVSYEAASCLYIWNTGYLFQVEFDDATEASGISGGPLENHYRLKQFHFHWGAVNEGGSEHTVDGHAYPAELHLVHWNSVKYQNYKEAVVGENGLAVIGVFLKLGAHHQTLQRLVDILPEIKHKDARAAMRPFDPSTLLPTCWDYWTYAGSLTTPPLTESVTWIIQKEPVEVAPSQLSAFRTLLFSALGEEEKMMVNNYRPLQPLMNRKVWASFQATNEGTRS
Sequence of Carbonic anhydrase 5B, mitochondrial (Q9Y2D0 whole entry): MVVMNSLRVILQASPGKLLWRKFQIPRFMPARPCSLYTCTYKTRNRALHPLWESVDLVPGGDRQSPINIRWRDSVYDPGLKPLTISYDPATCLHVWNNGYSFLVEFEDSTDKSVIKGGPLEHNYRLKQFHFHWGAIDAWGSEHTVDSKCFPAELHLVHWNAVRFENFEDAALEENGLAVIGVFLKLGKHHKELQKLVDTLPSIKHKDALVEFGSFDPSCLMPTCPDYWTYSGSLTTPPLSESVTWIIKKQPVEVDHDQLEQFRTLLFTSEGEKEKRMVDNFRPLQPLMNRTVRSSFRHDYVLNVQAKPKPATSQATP
Sequence of Carbonic anhydrase 6 (P23280 whole entry): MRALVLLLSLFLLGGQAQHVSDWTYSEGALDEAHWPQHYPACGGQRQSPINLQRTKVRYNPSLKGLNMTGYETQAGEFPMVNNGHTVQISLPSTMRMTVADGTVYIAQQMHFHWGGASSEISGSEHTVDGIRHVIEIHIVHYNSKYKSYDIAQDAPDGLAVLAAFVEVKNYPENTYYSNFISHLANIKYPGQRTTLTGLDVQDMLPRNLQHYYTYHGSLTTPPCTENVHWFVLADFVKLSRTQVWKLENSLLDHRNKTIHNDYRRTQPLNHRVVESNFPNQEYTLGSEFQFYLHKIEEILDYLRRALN
Sequence of Carbonic anhydrase 3 (P07451 whole entry): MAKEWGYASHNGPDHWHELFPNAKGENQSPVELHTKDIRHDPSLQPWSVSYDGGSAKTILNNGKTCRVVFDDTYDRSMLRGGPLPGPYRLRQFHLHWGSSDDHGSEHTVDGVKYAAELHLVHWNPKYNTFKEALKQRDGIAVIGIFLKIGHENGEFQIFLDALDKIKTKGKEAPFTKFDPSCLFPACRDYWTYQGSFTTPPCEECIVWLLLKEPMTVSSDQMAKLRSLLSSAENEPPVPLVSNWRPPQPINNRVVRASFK
Sequence of Carbonic anhydrase 14 (Q9ULX7 whole entry): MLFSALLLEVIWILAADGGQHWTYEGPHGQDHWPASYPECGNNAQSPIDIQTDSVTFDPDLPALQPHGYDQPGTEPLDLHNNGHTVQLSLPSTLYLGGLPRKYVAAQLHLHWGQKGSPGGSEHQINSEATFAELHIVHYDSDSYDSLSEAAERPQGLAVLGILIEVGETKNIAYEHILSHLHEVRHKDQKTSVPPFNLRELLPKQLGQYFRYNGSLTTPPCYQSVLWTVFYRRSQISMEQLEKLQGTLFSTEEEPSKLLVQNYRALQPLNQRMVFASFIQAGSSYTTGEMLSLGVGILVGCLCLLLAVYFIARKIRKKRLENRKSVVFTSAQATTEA
Sequence of Carbonic anhydrase 7 (P43166 whole entry): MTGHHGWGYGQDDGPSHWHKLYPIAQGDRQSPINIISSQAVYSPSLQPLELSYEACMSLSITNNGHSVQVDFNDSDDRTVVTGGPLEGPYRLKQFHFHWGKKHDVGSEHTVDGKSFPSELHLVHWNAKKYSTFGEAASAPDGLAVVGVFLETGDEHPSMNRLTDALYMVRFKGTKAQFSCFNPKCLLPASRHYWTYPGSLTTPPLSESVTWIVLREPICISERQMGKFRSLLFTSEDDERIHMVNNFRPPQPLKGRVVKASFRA

Turning to `NS(=O)(=O)OCCCCCCCCOS(N)(=O)=O`, the Ki was 1200 nM in assay [1]; 605 nM in assay [2]; 1020 nM in assay [3]; 1460 nM in assay [4]; 569 nM in assay [5]; 1130 nM in assay [6]. Besides, the Ki in assay [7] was determined as 7.9 nM.

With `NS(=O)(=O)OCCCCCCCCCCOS(N)(=O)=O`, the Ki in assay [5] amounted to 960 nM.

With `CCCCCCCCCCOS(N)(=O)=O` [DECYL SULFAMATE], affinity in assay [5] was put at a Ki of 956 nM.

Take `CCCCCCCCOS(N)(=O)=O` [OCTYL SULFAMATE]: the Ki in assay [8] came out at 76.6 nM; in assay [1], 1250 nM; in assay [2], 390 nM; in assay [3], 795 nM; in assay [4] it was 624 nM; in assay [5] it was 1130 nM. Moreover, the Ki in assay [6] came out at 9100 nM; in assay [7], 7 nM.

These data come from ChEMBL document CHEMBL1155218, “Carbonic anhydrase inhibitors. Comparison of aliphatic sulfamate/bis-sulfamate adducts with isozymes II and IX as a platform for designing tight-binding, more isoform-selective inhibitors” (J Med Chem, 2009).
